# US20250179103A1, “6-OXODECAHYDROPYRROLO[1,2-A][1,5]DIAZOCINE AND 6-OXODECAHYDRO-4H-PYRROLO[2,1-D][1,5]THIAZOCINE DERIVATIVES AS STAT3 AND STAT6 MODULATORS FOR THE TREATMENT OF CANCER AND INFLAMMATORY CONDITIONS” (Recludix Pharma, Inc., priority 2022, published 2025)
# System: pY641-STAT6 in Peripheral Blood Mononuclear Cells (PBMC)
# Assay: MSD-pSTAT-PBMC Assay (pSTAT6, IL-4 stimulated)
# Format: cell-based, Human
# Details: Homo sapiens, compound 3 hrs, then 1 ng/mL IL-4 for 10 min
# Excerpt: Cryopreserved Peripheral Blood Mononuclear Cells (PBMC) are from AllCells. Recombinant Human IL-4 and IL-6 are from Peprotech. Mouse monoclonal anti-STAT3 antibody, rabbit monoclonal anti-pY705-STAT3 antibody, rabbit monoclonal Anti-pY641-STAT6 antibody, and lysis buffer are from Cell Signaling Technology (CST). Mouse monoclonal anti-STAT6 antibody is from BioLegend. Assay plates, blocker, and anti-rabbit secondary antibody are from Meso Scale Discovery (MSD).
# Cryopreserved PBMCs were thawed out and allowed to recover overnight in IMDM+10% heat-inactivated FBS prior to plating 50,000 (STAT3) or 25,000 (STAT6) cells per well in 96-well U-bottom tissue culture plates. Cells were treated with compound for 3 hrs, then stimulated with 10 ng/mL IL-6 (STAT3) or 1 ng/mL IL-4 (STAT6) for 10 min. Cells were then spun down and washed with ice-cold PBS prior to lysing the cell pellet with 1× lysis buffer (CST) with 1×HALT protease and phosphatase inhibitor cocktail (Thermo). Lysates were transferred to and incubated overnight at 4° C. with shaking in QuickPlex 96-well high bind assay plates (MSD) pre-coated overnight with 30 μL per well of 0.6 μg/mL mouse monoclonal anti-STAT3 antibody (STAT3) or 2 μg/mL mouse monoclonal anti-STAT6 antibody (STAT6) in 1×PBS, and pre-blocked for 1 hour with 3% Blocker-A (MSD). Captured protein in the assay plates were then washed and probed with 25 μL per well of 0.25 μg/ml rabbit monoclonal anti-pY705-STAT3 antibody (STAT3) or […] rabbit monoclonal Anti-pY641-STAT6 antibody (STAT6) in 1% Blocker-A for 1 hour at room temperature with shaking, then washed and probed with 25 ul per well of 1 ug/ml Sulfo-TAG Labeled Goat Anti-Rabbit Antibody (MSD) in 1% Blocker-A for 1 hour at room temperature with shaking. Assay plates were then washed and 150 μL of 1× Read Buffer-T (MSD) was added to each well prior to reading on an SQ120 MSD Plate Reader. Assay signal from each sample was subtracted by the signal from unstimulated control wells and normalized to DMSO control wells. IC50 values were calculated using Graph Pad Prism Dose-Response Nonlinear Regression with variable slope. For both pSTAT3 and pSTAT6 A=≤100 nM; B=>100-1000 nM; C=>1000-3000 nM; and D=>3 μM.
row,SMILES,IC50 [nM]
1,"CCCOC(=O)[C@H](C)NP(=O)(Oc1ccccc1)C(F)c1ccc2ccc(C(=O)N[C@H]3CN(C(=O)c4noc5ccc(OC)cc45)CC[C@H]4CC[C@@H](C(=O)N5CCOCC5)N4C3=O)cc2c1 (stereo partly drawn) [Compound 428, propyl ((fluoro(7-(((5S,8S,10aR)-3-(5-methoxybenzo [d]isoxazole-3-carbonyl)-8-(morpholine-4-carbonyl)-6-oxodecahydro-pyrrolo [1,2-a][1,5]diazocin-5-yl)carbamoyl)naphthalen-2-yl)methyl) (phenoxy)phosphoryl)-L-alaninate]",100 to 1000
2,"CCCOC(=O)[C@H](C)NP(=O)(Oc1ccccc1)C(F)c1ccc2ccc(C(=O)N[C@H]3CN(C(=O)c4noc5ccc(C)cc45)CC[C@H]4CC[C@@H](C(=O)N5C[C@@H](C)O[C@@H](C)C5)N4C3=O)cc2c1 (stereo partly drawn) [Compound 440, propyl (((7-(((5S,8S,10aR)-8-((2R,6S)-2,6-dimethyl-morpholine-4-carbonyl)-3-(5-methylbenzo [d]isoxazole-3-carbonyl)-6-oxodeca-hydropyrrolo [1,2-a][1,5]diazocin-5-yl)carbamoyl)naphthalen-2-yl)fluoromethyl) (phenoxy)phosphoryl)-L-alaninate]",≤ 100
3,"CCCOC(=O)[C@H](C)NP(=O)(Oc1ccccc1)C(F)c1ccc2ccc(C(=O)N[C@H]3CN(C(C)=O)CC[C@H]4CC[C@@H](C(=O)N5CC(c6ccn(C)c(=O)c6)CC56CC6)N4C3=O)cc2c1 (stereo partly drawn) [Compound 406, propyl (((7-(((5S,8S,10aR)-3-acetyl-8-(6-(1-methyl-2-oxo-1,2-dihydro-pyridin-4-yl)-4-azaspiro[2.4]heptane-4-carbonyl)-6-oxodeca-hydropyrrolo [1,2-a] [1,5]diazocin-5-yl)carbamoyl)naphthalen-2-yl)fluoromethyl) (phenoxy)phosphoryl)-L-alaninate]",100 to 1000
4,"CCCOC(=O)[C@H](C)NP(=O)(Oc1ccccc1)[C@@H](F)c1ccc2ccc(C(=O)N[C@H]3CN(C(=O)c4noc5ccc(C)cc45)CC[C@H]4CC[C@@H](C(=O)N5CC6CCC(C5)O6)N4C3=O)cc2c1 (stereo partly drawn) [Compound 416, propyl (((1R)-(7-(((5S,8S,10aR)-8-(8-oxa-3-azabicyclo [3.2.1]octane-3-carbonyl)-3-(5-methylbenzo [d]isoxazole-3-carbonyl)-6-oxodeca-hydropyrrolo [1,2-a][1,5]diazocin-5-yl)carbamoyl)naphthalen-2-yl)fluoromethyl) (phenoxy)phosphoryl)-L-alaninate]",≤ 100
5,"CCCOC(=O)[C@H](C)NP(=O)(Oc1ccccc1)C(F)c1ccc2ccc(C(=O)N[C@H]3CN(C(=O)c4ncn5ccccc45)CC[C@H]4CC[C@@H](C(=O)N5CCOCC5)N4C3=O)cc2c1 (stereo partly drawn) [Compound 423, propyl ((fluoro(7-(((5S,8S,10aR)-3-(imidazo[1,5-a]pyridine-1-carbonyl)-8-(morpholine-4-carbonyl)-6-oxodecahydro-pyrrolo [1,2-a][1,5]diazocin-5-yl)carbamoyl)naphthalen-2-yl)methyl) (phenoxy)phosphoryl)-L-alaninate]",> 3000
6,"Cc1ccc2[nH]nc(C(=O)N3CC[C@H]4CC[C@@H](C(=O)N5CC(c6cc[nH]c(=O)c6)CC56CC6)N4C(=O)[C@@H](NC(=O)c4ccc5ccc(C(F)(F)P(=O)(OCCSC(=O)C(C)(C)C)OCCSC(=O)C(C)(C)C)cc5c4)C3)c2c1 (stereo partly drawn) [Compound 432, S,S′-((((difluoro(7 (((5S,8S,10aR)-3-(5-methyl-1H-indazole-3-carbonyl)-6-oxo-8-(6-(2-oxo-1,2-dihydro-pyridin-4-yl)-4-azaspiro [2.4]heptane-4-carbonyl)dec-ahydropyrrolo [1,2a][1,5]diazocin-5-yl)carbamoyl)naphthalen-2-yl)methyl)phosphoryl)bis(oxy))bis (ethane-2,1-diyl))bis(2,2-dimethylpro-panethioate)]",≤ 100
7,"CCCOC(=O)[C@H](C)NP(=O)(Oc1ccccc1)[C@@H](F)c1ccc2ccc(C(=O)N[C@H]3CN(C(=O)c4noc5ccc(C)cc45)CC[C@H]4CC[C@@H](C(=O)N5C[C@@H](c6ccn(C)c(=O)c6)CC56CC6)N4C3=O)cc2c1 (stereo partly drawn) [Compound 420, propyl (((R)-fluoro(7-(((5S,8S,10aR)-8-((R)-6-(1-methyl-2-oxo-1,2-dihydropyridin-4-yl)-4-azaspiro[2.4]heptane-4-carbonyl)-3-(5-methylbenzo [d]isoxazole-3-carbonyl)-6-oxodeca-hydropyrrolo [1,2-a][1,5]diazocin-5-yl)carbamoyl)naphthalen-2-yl)methyl) (phenoxy)phosphoryl)-L-alaninate]",≤ 100
8,"CCCOC(=O)[C@H](C)NP(=O)(Cc1ccc2ccc(C(=O)N[C@H]3CN(C(C)=O)CC[C@H]4CC[C@@H](C(=O)N5CC(c6ccn(C)c(=O)c6)CC56CC6)N4C3=O)cc2c1)Oc1ccccc1 (stereo partly drawn) [Compound 408, propyl (((7-(((5S,8S,10aR)-3-acetyl-8-(6-(1-methyl-2-oxo-1,2-dihydropyridin-4-yl)-4-azaspiro [2.4]heptane-4-carbonyl)-6-oxodeca-hydropyrrolo [1,2-a] [1,5]diazocin-5-yl)carbamoyl)naphthalen-2-yl)methyl) (phenoxy)phosphoryl)-L-alaninate]",1000 to 3000
9,"CCCOC(=O)[C@H](C)NP(=O)(Oc1ccccc1)C(F)c1ccc2ccc(C(=O)N[C@H]3CN(C(=O)c4noc5cc(OC)ccc45)CC[C@H]4CC[C@@H](C(=O)N5CCOCC5)N4C3=O)cc2c1 (stereo partly drawn) [Compound 424, propyl ((fluoro(7-(((5S,8S,10aR)-3-(6-methoxybenzo[d]isoxazole-3-carbonyl)-8-(morpholine-4-carbonyl)-6-oxodeca-hydropyrrolo [1,2-a][1,5]diazocin-5-yl)carbamoyl)naphthalen-2-yl)methyl) (phenoxy)phosphoryl)-L-alaninate]",1000 to 3000
10,"Cc1ccc2onc(C(=O)N3CC[C@H]4CC[C@@H](C(=O)N5C[C@@H](C#N)[C@H](c6ccccc6)C5)N4C(=O)[C@@H](NC(=O)c4ccc5ccc(C(F)(F)P(=O)(OCCSC(=O)CC(C)C)OCCSC(=O)CC(C)C)cc5c4)C3)c2c1 (single isomer, unassigned) [Compound 433]",≤ 100
11,"CCCOC(=O)[C@H](C)NP(=O)(Oc1ccccc1)C(F)c1ccc2ccc(C(=O)N[C@H]3CN(C(=O)c4ncn5c4CCCC5)CC[C@H]4CC[C@@H](C(=O)N5CCOCC5)N4C3=O)cc2c1 (stereo partly drawn) [Compound 429, propyl ((fluoro(7-(((5S,8S,10aR)-8-(morpholine-4-carbonyl)-6-oxo-3-(5,6,7,8-tetrahydro-imidazo [1,5-a]pyridine-1-carbonyl)decahydropyrrolo [1,2-a][1,5]diazocin-5-yl)carbamoyl)naphthalen-2-yl)methyl) (phenoxy)phosphoryl)-L-alaninate]",> 3000
12,"Cc1ccc2onc(C(=O)N3CC[C@H]4CC[C@@H](C(=O)N5C[C@@H](c6ccn(C)c(=O)c6)CC56CC6)N4C(=O)[C@@H](NC(=O)c4ccc5ccc(C(F)(F)P(=O)(OCCSC(=O)C(C)(C)C)OCCSC(=O)C(C)(C)C)cc5c4)C3)c2c1 [Compound 436, S,S′-((((difluoro(7-(((5S,8S,10aR)-8-((R)-6-(1-methyl-2-oxo-1,2-dihydropyridin-4-yl)-4-azaspiro[2.4]heptane-4-carbonyl)-3-(5-methylbenzo [d]isoxazole-3-carbonyl)-6-oxodeca-hydropyrrolo [1,2-a][1,5]diazocin-5-yl)carbamoyl)naphthalen-2-yl)methyl)phosphoryl)bis (oxy))bis (ethane-2,1-diyl))bis(2,2-dimethyl-propanethioate)]",≤ 100
13,"CCCOC(=O)[C@H](C)NP(=O)(Oc1ccccc1)[C@H](F)c1ccc2ccc(C(=O)N[C@H]3CN(C(=O)c4noc5ccc(C)cc45)CC[C@H]4CC[C@@H](C(=O)N5C[C@H](c6ccn(C)c(=O)c6)CC56CC6)N4C3=O)cc2c1 (stereo partly drawn) [Compound 419, propyl (((S)-fluoro(7-(((5S,8S,10aR)-8-((S)-6-(1-methyl-2-oxo-1,2-dihydropyridin-4-yl)-4-azaspiro[2.4]heptane-4-carbonyl)-3-(5-methylbenzo [d]isoxazole-3-carbonyl)-6-oxodeca-hydropyrrolo [1,2-a][1,5]diazocin-5-yl)carbamoyl)naphthalen-2-yl)methyl) (phenoxy)phosphoryl)-L-alaninate]",≤ 100
14,"CCCOC(=O)[C@H](C)NP(=O)(Oc1ccccc1)C(F)c1ccc2ccc(C(=O)N[C@H]3CN(C(=O)c4cc(Cl)c5nc(C)ccc5c4)CC[C@H]4CC[C@@H](C(=O)N5CCOCC5)N4C3=O)cc2c1 (stereo partly drawn) [Compound 407, propyl (((7-(((5S,8S,10aR)-3-(8-chloro-2-methylquinoline-6-carbonyl)-8-(morpholine-4-carbonyl)-6-oxodeca-hydropyrrolo [1,2-a][1,5]diazocin-5-yl)carbamoyl)naphthalen-2-yl)fluoromethyl) (phenoxy)phosphoryl)-L-alaninate]",1000 to 3000
